Test results: patent US7238694B2, “Rifamycin imino derivatives effective against drug-resistant microbes” (Cumbre Pharmaceuticals, Inc., priority 2004, dated 2007)
≈ marks a conversion by molar mass, not a printed value. Like-named read-outs stand apart in the source and are kept apart here.

Tests used:
Type in all cases: cell-based
[1] = test system: Streptococcus pneumoniae ATCC6303; assay: MIC, microbroth dilution (NCCLS)
[2] = test system: Staphylococcus epidermidis ATCC12228; assay: MIC, microbroth dilution (NCCLS)
[3] = test system: Streptococcus pyogenes ATCC19615; assay: MIC, microbroth dilution (NCCLS)
[4] = test system: Staphylococcus aureus ATCC29213 rpoB^H418Y; assay: microbe, parasite or virus in culture
[5] = test system: Haemophilus influenzae ATCC10211; assay: MIC, microbroth dilution (NCCLS)
[6] = test system: Staphylococcus aureus MT1222 gyrA^A116E grlB^S80F; assay: microbe, parasite or virus in culture
[7] = test system: Staphylococcus aureus ATCC29213; assay: MIC, microbroth dilution (NCCLS)
[8] = test system: Enterococcus faecalis ATCC29212; assay: MIC, microbroth dilution (NCCLS)
[9] = test system: Escherichia coli ATCC25922; assay: MIC, microbroth dilution (NCCLS)
[10] = test system: Mycobacterium smegmatis ATCC700084; assay: MIC, microbroth dilution (NCCLS)
[11] = test system: H. influenzae ATCC 10211 and E. coli ATCC 25922; assay: MIC, Gram-negative bacteria; conditions: text summary over two Gram-negative strains
[12] = MIC, panel of rifampin-susceptible Gram-positive strains; conditions: text summary over five rifampin-susceptible Gram-positive strains
[13] = test system: Staphylococcus aureus ATCC29213 rpoB^D417Y; assay: microbe, parasite or virus in culture
[14] = rifS strain, THY Broth with 1 mg/mL catalase, 5% CO2, 37° C., read-out: MIC
[15] = rifS strain, Cation-Adjusted Mueller-Hinton Broth, 37° C., read-out: MIC
[16] = rifS strain, THY Broth, 37° C., read-out: MIC
[17] = Staphylococcus aureus, ATCC29213, rifR strain, Cation-Adjusted Mueller-Hinton Broth, 37° C., read-out: MIC
[18] = rifS strain, BHI Broth with NAD and hematin, 37° C., read-out: MIC
[19] = cipR strain, Cation-Adjusted Mueller-Hinton Broth, 37° C., read-out: MIC
[20] = Staphylococcus aureus, ATCC29213
[21] = rifR strain, Cation-Adjusted Mueller-Hinton Broth, 37° C.

CO[C@H]1/C=C/O[C@@]2(C)Oc3c(C)c(O)c4c(O)c(c(/C=N/N5CCN(c6nc7c(cc6F)c(=O)c(C(=O)O)cn7C6CC6)CC5)c(O)c4c3C2=O)NC(=O)/C(C)=C\C=C\[C@H](C)[C@H](O)[C@@H](C)[C@@H](O)[C@@H](C)[C@H](OC(C)=O)[C@@H]1C [Example 35, 3-[4-(3-Carboxy-1-cyclopropyl-6-fluoro-4-oxo-1,4-dihydro-[1,8]naphthyridine-7-yl)-piperazin-1-yl-aminomethylenyl]-rifamycin SV]
MIC [1, 14]: 0.008 to 0.06 µg/mL (≈ 0.00758 to 0.0569 µM) | MIC [2, 15]: 0.008 to 0.1 µg/mL (≈ 0.00758 to 0.0948 µM) | MIC [3, 16]: 0.008 to 0.03 µg/mL (≈ 0.00758 to 0.0284 µM) | MIC [4, 17]: 0.06 to 16 µg/mL (≈ 0.0569 to 15.2 µM) | MIC [5, 18]: 0.125 to 4 µg/mL (≈ 0.118 to 3.79 µM) | MIC [6, 19]: 0.008 to 0.125 µg/mL (≈ 0.00758 to 0.118 µM) | MIC [7, 15]: 0.008 to 1 µg/mL (≈ 0.00758 to 0.948 µM)

CO[C@H]1/C=C/O[C@@]2(C)Oc3c(C)c(O)c4c(O)c(c(/C=N/N5CCN(c6c(F)cc7c(=O)c(C(=O)O)cn(C8CC8)c7c6Cl)CC5)c(O)c4c3C2=O)NC(=O)/C(C)=C\C=C\[C@H](C)[C@H](O)[C@@H](C)[C@@H](O)[C@@H](C)[C@H](OC(C)=O)[C@@H]1C [Example 40, 3-[4-(3-Carboxy-8-chloro-1-cyclopropyl-6-fluoro-4-oxo-1,4-dihydroquinolin-7-yl)-piperazin-1-yl-aminomethylenyl]-rifamycin SV]
MIC [1, 14]: 0.008 to 0.06 µg/mL (≈ 0.00735 to 0.0551 µM) | MIC [2, 15]: 0.008 to 0.1 µg/mL (≈ 0.00735 to 0.0919 µM) | MIC [3, 16]: 0.008 to 0.03 µg/mL (≈ 0.00735 to 0.0276 µM) | MIC [4, 17]: 0.06 to 16 µg/mL (≈ 0.0551 to 14.7 µM) | MIC [5, 18]: 0.125 to 4 µg/mL (≈ 0.115 to 3.67 µM) | MIC [6, 19]: 0.008 to 0.125 µg/mL (≈ 0.00735 to 0.115 µM) | MIC [7, 15]: 0.008 to 1 µg/mL (≈ 0.00735 to 0.919 µM)

COc1c(N2CCC(C(C)N/N=C/c3c4c(O)c5c(O)c(C)c6c(c5c3O)C(=O)[C@@](C)(O/C=C/[C@H](OC)[C@@H](C)[C@@H](OC(C)=O)[C@H](C)[C@H](O)[C@H](C)[C@@H](O)[C@@H](C)/C=C/C=C(/C)C(=O)N4)O6)C2)c(F)cc2c(=O)c(C(=O)O)cn(C3CC3)c12 (stereo partly shown) [Example 42, 3-({1-[1-(3-Carboxy-1-cyclopropyl-6-fluoro-8-methoxy-4-oxo-1,4-dihydro-quinolin-7-yl)-pyrrolidin-3-yl]-ethyl}-hydrazinomethylenyl)-rifamycin SV]
MIC [1, 14]: 0.008 to 0.06 µg/mL (≈ 0.00719 to 0.0539 µM) | MIC [2, 15]: 0.008 to 0.1 µg/mL (≈ 0.00719 to 0.0899 µM) | MIC [3, 16]: 0.008 to 0.03 µg/mL (≈ 0.00719 to 0.027 µM) | MIC [4, 17]: 0.06 to 16 µg/mL (≈ 0.0539 to 14.4 µM) | MIC [5, 18]: 0.125 to 4 µg/mL (≈ 0.112 to 3.6 µM) | MIC [6, 19]: 0.008 to 0.125 µg/mL (≈ 0.00719 to 0.112 µM) | MIC [7, 15]: 0.008 to 1 µg/mL (≈ 0.00719 to 0.899 µM)

CO[C@H]1/C=C/O[C@@]2(C)Oc3c(C)c(O)c4c(O)c(c(/C=N/N5CCN(C)CC5)c(O)c4c3C2=O)NC(=O)/C(C)=C\C=C\[C@H](C)[C@H](O)[C@@H](C)[C@@H](O)[C@@H](C)[C@H](OC(C)=O)[C@@H]1C [rifampin, reference compound]
MIC [8]: 0.98 µg/mL (≈ 1.19 µM) | MIC [1]: 0.061 µg/mL (≈ 0.0741 µM) | MIC [9]: 16 µg/mL (≈ 19.4 µM) | MIC [2]: 0.03 µg/mL (≈ 0.0365 µM) | MIC [3]: 0.013 µg/mL (≈ 0.0158 µM) | MIC ([10]; Mycolicibacterium smegmatis, ATCC700084): 64 µg/mL (≈ 77.8 µM) | MIC ([10]; rifS strain, Middlebrook Broth plus ADC Enrichment, 37° C.): 64 µg/mL | MIC [11]: 0.24 to 16 µg/mL (≈ 0.292 to 19.4 µM) | MIC [4, 20]: 7.8 µg/mL (≈ 9.48 µM) | MIC [4, 21]: 7.8 µg/mL (≈ 9.48 µM) | MIC [5]: 0.24 µg/mL (≈ 0.292 µM) | MIC [12]: 0.008 to 1 µg/mL (≈ 0.00972 to 1.22 µM) | MIC [13, 20]: > 64 µg/mL | MIC [13, 21]: >64 µg/mL | MIC [6]: 0.004 µg/mL (≈ 0.00486 µM) | MIC [7]: 0.008 µg/mL (≈ 0.00972 µM)
